{
  "source": "patent US8969294B2",
  "about": "(Istituto di Recerche di Biologia Molecolare P. Angeletti …, priority 2008, dated 2015)",
  "key": {"[1]": {"assay": "DIO mice, i.p. once a week for 2 weeks (Example 30)", "format": "in vivo", "details": "glucose 24 hours after peptide", "description": "Changes in body weight of and food intake by the mice were measured 0, 1, 3, 5, 7, 8, 10, 12, and 14 days after injection. Blood glucose levels of the mice were monitored throughout the 14 days. Glucose tolerance tests were performed by injecting a 25% glucose in saline solution 1 hour or 24 hours after administration of the acylated or pegylated peptide and measuring blood glucose levels at −60, 0, 15, 30, 60, or 120 min after the glucose injection."}, "[2]": {"assay": "Glucose challenge in DIO mice after i.p. peptide (Examples 24, 25)", "format": "in vivo", "details": "2, 20, 70 nmol/kg i.p.", "description": "Diet-induced obesity (DIO) mice were injected intraperitoneally at the −15 min time point with 0.2, 2, 20, or 70 nmol/kg of one of the following:\nA saline solution comprising 25% (v/v) glucose was injected at a dose of 1.5 g/kg of body weight at the 0 min time point. Blood glucose levels were measured at the −15, 0, 15, 30, 60, and 120 min time points.\nDIO mice were injected intraperitoneally at the −24 hr time point with 70 nmol/kg of one of the following:\nA saline solution comprising 25% (v/v) glucose was injected at a dose of 1.5 g/kg of body weight at the 0 min time point. Blood glucose levels were measured at the 0, 15, 30, 60, and 120 min time points."}, "[3]": {"test_system": "Uncoupling protein I (UCP1)", "assay": "UCP1 levels in brown adipose tissue", "parameters": "species or system mice", "details": "mouse, in vivo"}, "[4]": {"assay": "Diet-induced obese C57B6 mice, s.c. Peptide X-PEG / Y-PEG (Examples 45-49)", "format": "in vivo", "description": "C57BI/6 mice were obtained from Jackson Laboratories and fed a diabetogenic diet from Research Diets, a high sucrose diet with 58% kcal from fat. Mice were single or group-housed on a 12:12-h light-dark cycle at 22° C. with free access to food and water. All studies were approved by and performed according to the guidelines of the Institutional Animal Care and Use Committee of the University of Cincinnati.\nWhole body composition (fat and lean mass) was measured using NMR technology (EchoMRI, Houston, Tex.).\nEnergy intake and expenditure, as well as home-cage activity, were assessed by using a combined indirect calorimetry system (TSE Systems, Bad Homburg, Germany). Oxygen consumption and CO2 production were measured every 45 min for a total of 120 h (including 12 h of adaptation) to determine the respiratory quotient and energy expenditure. Food and water intake and meal patterns were determined continuously for 120 h at the same time as the indirect calorimetry assessments by integration of scales into the sealed cage environment. Meals were defined as food intake events with a minimum duration of 60 s, and a break of 300 s between food intake events. Home-cage locomotor activity was determined using a multidimensional infrared light beam system with beams scanning the bottom and top levels of the cage, and activity being expressed as beam breaks. Stationary motor activity (fidgeting) was defined as consecutive breaks of one single light beam at cage-bottom level, ambulatory movement as breaks of any two different light beams at cage-bottom level, and rearing as simultaneous breaks of light beams on both cage-bottom and the top level.\nBlood was collected after a 6-h fast from tail veins using EDTA-coated Microvette tubes (Sarstedt, Nuremberg, Germany) and immediately chilled on ice. After 15 min of centrifugation at 3,000 g and 4° C., plasma was stored at −80° C. Plasma insulin was quantified by a radioimmunoassay from Linco (Sensitive Rat Insulin RIA; Linco Research, St. Charles, Mo.). Plasma TGs and cholesterol levels were measured by enzymatic assay kits (Thermo Electron, Waltham, Mass.). Samples were analyzed individually with the exception that pooled samples (0.25 ml) from 5 animals/group were subjected to fast-performance liquid chromatography (FPLC) gel filtration on two Superose 6 columns connected in series for lipoprotein separation. All assays were performed according to the manufacturer's instructions.\nFor the determination of glucose tolerance, mice were subjected to 6 h of fasting and injected intraperitoneally (i.p.) with 2 g glucose/kg body wt (50% D-glucose (Sigma) in 0.9% saline) for the glucose tolerance test (GTT). Tail blood glucose levels (mg/dl) were measured by using a hand-held glucometer (TheraSense Freestyle) before (0 min) and at 15, 30, 60, 90, and 120 min after injection.\nThe 40-kd pegylated peptides Peptides X-PEG and Y-PEG were used as single weekly subcutaneous (s.c) injections in diet-induced obese (D10) C57B6 mice.\nLong-term effects of these lower doses on food intake (p=0.95; FIG. 29C) were less impressive than short-term effects with a higher dose (FIG. 27C)."}, "[5]": {"test_system": "hormone sensitive lipase (HSL)", "assay": "Western blot of WAT HSL phosphorylation", "format": "in vivo, mice", "details": "one month treatment", "description": "Adipose tissue was placed in a 1.5-ml microfuge tube and lysed in ice cold RIPA buffer (1×PBS, 1% Nonidet P40, 0.5% sodium doxycholate, 0.1% SDS with 50 mM NaF, […], 0.1 mM Na Vanadate, 20 μg/ml Aprotinin, 10 μg/ml Leupeptin) using a tissue lyser (Retsch, Inc Newtown, Pa. Cat. #85210) at 30 hz for 3 min. Samples were spun at 12,000 rpm for 15 min (4° C.) at which time the internatant was removed to a new tube and sonicated for 15 sec on ice. Samples were spun at 14,000 rpm for 10 min (4° C.) and the internatant was collected to a new tube. Samples were again spun at 19,000 rpm for 10 min (4° C.) and the internatant collected to a new tube. An aliquot of sample was then taken for protein assay. Samples were then boiled in 4×SDS/DTT buffer for 2 min. 50 μg of protein from cell lysate were subjected to SDS/PAGE on 9% (w/v) acrylamide resolving gels and transferred to Hybond ECL nictrocellulose membranes. […] After washing, primary antibody detection was performed using either HRP-conjugated anti-(rabbit IgG) or anti-(mouse IgG) (HRP-conjugated anti-rabbit and anti-mouse secondary antibodies were purchased from Bio-Rad (170-6515 & 170-6516)) and detected using enhanced chemiluminescence (Amersham Biosciences) and exposed to CL-Xposure film (Pierce)."}, "[6]": {"assay": "GLP-1 receptor knock out (GLP-1R−/−) mice on high-fat diet, one month", "format": "in vivo"}, "[7]": {"assay": "Diet-induced obese rats, once-a-week injection, 3-week treatment", "format": "in vivo", "details": "70 nmol/kg/week, 3 weeks", "description": "To determine if the principal phenomenon generalizes across species, both compounds were administered to diet-induced obese rats (mean weight 777.4+/−2.1 g, dose 70 nmol/kg/week, once-a-week injection, 3-week treatment)."}, "[8]": {"assay": "Body weight of DIO mice after i.p. injection (Example 26)", "format": "in vivo", "details": "15 or 70 nmol/kg i.p., 7 days", "description": "DIO mice were injected intraperitoneally with vehicle only or 15 or 70 nmol/kg of one of the following:\nBody weight was measured before injection and at 1, 3, 5, and 7 days post-injection."}, "[9]": {"details": "70 nmol/kg s.c. Days 0 and 7, Day 9"}},
  "note": "Square brackets hold non-standard residues; d marks the D form. Ends that are not written are not given here. Aib = CC(C)(N)C(=O)O",
  "data": [
    {"substance": "Peptide A K^10—C8: Chimera 2 with AIB2, Lys10 acylated with C8 fatty acid, Cys24 40K PEG (H[Aib]QGTFTSDK(C8 fatty acid)SKYLDEQAAKEFIC(PEG 40 kDa)WLMNT-NH2)", "values": [
      {"measurement": "blood glucose levels in response to a glucose injection", "setting": "[1]", "value": "lowered in comparison to vehicle control"},
      {"measurement": "ability to lower blood glucose, glucose challenge 15 min after peptide", "setting": "[2]", "value": "greatest ability to lower blood glucose"}
    ]},
    {"substance": "H(Aib)QGTFTSDYSKYLDEQAAKEFICWLMNT-amide [Peptide X-PEG]", "values": [
      {"measurement": "Uncoupling protein I (UCP1) levels in brown adipose tissue", "setting": "[3]", "value": "2.167±0.429"},
      {"measurement": "leptin", "setting": "[4]; [9]", "value": "7308 ± 2927", "unit": "pg/mL"},
      {"measurement": "plasma triglycerides", "setting": "[4]; [9]", "value": "no significant effect on triglycerides"},
      {"measurement": "blood glucose profile (AUC), i.p. glucose challenge", "setting": "[4]; Day 3", "value": "13794±824.1"},
      {"measurement": "Plasma C-peptide levels", "setting": "[4]; after one month of treatment", "value": 624.7, "unit": "pg/mL"},
      {"measurement": "plasma insulin", "setting": "[4]; after one month of treatment", "value": 1034, "unit": "pg/mL"},
      {"measurement": "total cholesterol", "setting": "[4]; chronic s.c. treatment over 27 days", "value": 106.9, "unit": "mg/dL"},
      {"measurement": "dose response of body weight and blood glucose", "setting": "[4]; single s.c. 0-350 nmol/kg", "value": "linearly responsive, dose-dependent decreases in body weight and blood glucose"},
      {"measurement": "Energy expenditure", "setting": "[4]; weekly s.c. 70 nmol/kg", "value": "17.19±1.49 kcal/[kg*h]"},
      {"measurement": "change in fat mass", "setting": "[4]; weekly s.c. 70 nmol/kg", "value": "−52.2", "unit": "%"},
      {"measurement": "respiratory quotient", "setting": "[4]; weekly s.c. 70 nmol/kg", "value": "0.725±0.01"},
      {"measurement": "Blood glucose levels, mean decrease", "setting": "[4]; weekly s.c. 70 nmol/kg, from Day 3", "value": "−24.5", "unit": "%"},
      {"measurement": "decrease in body weight", "setting": "[4]; weekly s.c. 70 nmol/kg, one month", "value": 20.1, "unit": "%"},
      {"measurement": "phosphorylation of hormone sensitive lipase (HSL) in white adipose tissue", "setting": "[5]", "value": "1.135±0.315"},
      {"measurement": "body weight", "setting": "[6]", "value": "caused a reduction of body weight (p>0.05"},
      {"measurement": "food intake", "setting": "[6]", "value": "no effect on food intake"},
      {"measurement": "change in body weight", "setting": "[7]", "value": "−11.15+/−0.88%"},
      {"measurement": "change in fat mass", "setting": "[7]", "value": "−19.17+/−2.03%"},
      {"measurement": "ability to lower body weight", "setting": "[8]", "value": "comparable ability to lower body weight"}
    ]}
  ]
}
